From US20150232509A1, “SPIRO RING COMPOUNDS AS HEPATITIS C VIRUS (HCV) INHIBITORS” (SUNSHINE LAKE PHARMA CO., LTD., priority 2012, published 2015)
pEC50: −log10 of the molar value.

Key:
[1] = test system: HCV GT1a replicon cells; assay: HCV Replicon assay, GT1a replicon cells (Luciferase / NEO qPCR); format: cell-based; conditions: Hepatitis C virus, 72 hours incubation, read-out: EC50 against HCV 1a genotype
Protocol: (§1) An HCV Replicon assay was utilized in the present invention, and was prepared, developed and validated as described in Science, 1999, 285 (5424), 110-3 and J. Virol., 2003, 77 (5), 3007-19.
(§2) HCV GT1a, GT1b and GT2a replicon cells were used to test the currently described compound series as well as wild-type cells HCV 1b and resistant cells Y93H, L31F, P32L and 1302V. […]
(§3) The GT1a cells and GT1b cells were seeded into 96-well plates (8,000 cells in 125 μL/well) respectively; each compound was diluted to desired concentration using 5-fold serial dilutions protocol, 10 doses in duplicate, and added to wells with POD™ 810 Plate Assembler. The final concentration of DMSO was 0.5%; the plates were incubated in a CO2 incubator for 72 hours; after that, 40 μL of Luciferase assay substrate (Promega Bright-Glo) was added to each well, and detected by a chemiluminescence detection system (Topcount Microplate Scintillation and Luminescence Counter) 5 minutes later; data analysis.
(§4) The GT1a cells and GT1b cells were seeded into 96-well plates (8,000 cells in 125 μL/well) respectively; each compound was diluted to desired concentration using 5-fold serial dilutions protocol, 10 doses in duplicate, and added to wells with POD™ 810 Plate Assembler., the final concentration of DMSO was 0.5%; the cells were incubated in a CO2 incubator for 72 hours; quantitative PCR. • Sample preparation: the supernatant was removed, 100 μL of FCW buffer solution was added to each well, washed carefully and discarded the solution; 50 μL of lysate FCP was added to each well, the cells was lysed as PCR template and PCR template was diluted with DEPC water as sample template. • Quantitative PCR: preparation of reaction mixture according to PCR system; the reaction mixture was dispensed into a 384-well PCR reaction plate (specially for quantitative); and a standard template which was diluted in proportion was distributed into the plate; and the sample template was distributed into the plate; then the 384-well plate was sealed with closure plate membrane; the […] PCR machine was operated by procedures; data analysis. 3. Data Processing: the EC50 Values of Compounds were Analyzed by GraphPad Prism Software.

[2] = test system: HCV GT1b replicon cells; assay: HCV Replicon assay, GT1b replicon cells (Luciferase / NEO qPCR); format: cell-based; conditions: Hepatitis C virus, 72 hours incubation, read-out: EC50 against HCV 1b genotype
Protocol: as §1, §2, §3, §4

COC(=O)N[C@H](C(=O)N1C[C@@H](C)C[C@H]1c1nc(-c2ccc(-c3ccc(-c4ccc5nc([C@@H]6C[C@H](C)CN6C(=O)[C@@H](NC(=O)OC)C(C)C)[nH]c5c4)c4c3C3(CCCC3)CC4)cc2)c[nH]1)C(C)C [Example 16]
pEC50 [1]: 11.10 | pEC50 [2]: 11.30

COC(=O)N[C@H](C(=O)N1C[C@@H](F)C[C@H]1c1ncc(-c2ccc(-c3ccc(-c4cnc([C@@H]5C[C@H](F)CN5C(=O)[C@@H](NC(=O)OC)C(C)C)[nH]4)c4c3C3(CCCC3)CC4)cc2)[nH]1)C(C)C [Example 17]
pEC50 [1]: 9.32 | pEC50 [2]: 10.14

C=C([C@@H](NC(=O)OC)C(C)C)N1CC(C)(C)C[C@H]1c1ncc(-c2ccc(-c3ccc(-c4cnc([C@@H]5CC(C)(C)CN5C(=O)[C@@H](NC(=O)OC)C(C)C)[nH]4)cc3)c3c2CCC32CCCC2)[nH]1 [Example 18]
pEC50 [1]: 9.34 | pEC50 [2]: 9.69

COC(=O)N[C@H](C(=O)N1CCC[C@H]1c1ncc(-c2ccc(-c3ccc(-c4ccc5nc([C@@H]6CCCN6C(=O)[C@@H](NC(=O)OC)c6ccccc6)[nH]c5c4)c4c3C3(CCCC3)CC4)cc2)[nH]1)c1ccccc1 [Example 19]
pEC50 [1]: 9.42 | pEC50 [2]: 10.96

COC(=O)N[C@H](C(=O)N1CCC[C@H]1C(=O)Nc1ccc(-c2ccc(-c3ccc(NC(=O)[C@@H]4CCCN4C(=O)[C@@H](NC(=O)OC)C(C)C)cc3)c3c2CCC32CCCC2)cc1)C(C)C [Example 20]
pEC50 [1]: 8.23 | pEC50 [2]: 8.99

COC(=O)N[C@H](C(=O)N1C[C@@H](C)C[C@H]1c1nc(-c2ccc(-c3ccc(-c4ccc(-c5c[nH]c([C@@H]6C[C@H](C)CN6C(=O)[C@@H](NC(=O)OC)C(C)C)n5)cc4)c4c3CCC43CCCC3)cc2)c[nH]1)C(C)C [Example 21]
pEC50 [1]: 8.31 | pEC50 [2]: 9.01

COC(=O)N[C@H](C(=O)N1CC2(CC2)C[C@H]1c1ncc(-c2ccc(-c3ccc(-c4ccc(-c5cnc([C@@H]6CC7(CC7)CN6C(=O)[C@@H](NC(=O)OC)C(C)C)[nH]5)cc4)c4c3CCC43CCCC3)cc2)[nH]1)C(C)C [Example 22]
pEC50 [1]: 8.44 | pEC50 [2]: 9.06

COC(=O)N[C@H](C(=O)N1C2CC2C[C@H]1c1ncc(-c2ccc(-c3ccc(-c4ccc(-c5cnc([C@@H]6CC7CC7N6C(=O)[C@@H](NC(=O)OC)C(C)C)[nH]5)cc4)c4c3CCC43CCCC3)cc2)[nH]1)C(C)C (stereo partly drawn) [Example 23]
pEC50 [1]: 9.48 | pEC50 [2]: 10.92

CCC(C)[C@H](NC(=O)OC)C(=O)N1C2CC2C[C@H]1c1ncc(-c2ccc(-c3ccc(-c4ccc(-c5cnc([C@@H]6CC7CC7N6C(=O)[C@@H](NC(=O)OC)C(C)CC)[nH]5)cc4)c4c3CCC43CCCC3)cc2)[nH]1 (stereo partly drawn) [Example 24]
pEC50 [1]: 8.57 | pEC50 [2]: 10.26

COC(=O)N[C@H](C(=O)N1C2CCC(C2)[C@H]1c1ncc(-c2ccc(-c3ccc(-c4cnc([C@@H]5C6CCC(C6)N5C(=O)[C@@H](NC(=O)OC)C(C)C)[nH]4)c4c3C3(CCCC3)CC4)cc2)[nH]1)C(C)C (stereo partly drawn) [Example 25]
pEC50 [1]: 7.97 | pEC50 [2]: 10.49

COC(=O)N[C@H](C(=O)N1CCCC[C@H]1c1ncc(-c2ccc(-c3ccc(-c4cnc([C@@H]5CCCCN5C(=O)[C@@H](NC(=O)OC)C(C)C)[nH]4)c4c3C3(CCCC3)CC4)cc2)[nH]1)C(C)C [Example 26]
pEC50 [1]: 7.86 | pEC50 [2]: 10.06

COC(=O)N[C@@H](C)C(=O)N1CCCC[C@H]1c1ncc(-c2ccc(-c3ccc(-c4cnc([C@@H]5CCCCN5C(=O)[C@H](C)NC(=O)OC)[nH]4)c4c3C3(CCCC3)CC4)cc2)[nH]1 [Example 27]
pEC50 [1]: 7.90 | pEC50 [2]: 9.18

COC(=O)N[C@H](C(=O)N1CCS[C@H]1c1ncc(-c2ccc(-c3ccc(-c4cnc([C@@H]5SCCN5C(=O)[C@@H](NC(=O)OC)C(C)C)[nH]4)c4c3C3(CCCC3)CC4)cc2)[nH]1)C(C)C [Example 28]
pEC50 [1]: 8.34 | pEC50 [2]: 9.18

COC(=O)N[C@H](C(=O)N1CCC[C@H]1c1ncc(-c2ccc(-c3ccc(-c4ccc5nc([C@@H]6CCCN6C(=O)[C@@H](NC(=O)OC)C(C)C)[nH]c5c4)cc3)c3c2CCC32CCCC2)[nH]1)C(C)C [Example 29]
pEC50 [1]: 8.06 | pEC50 [2]: 9.66

COC(=O)N[C@H](C(=O)N1CCC[C@H]1c1ncc(-c2ccc3cc(-c4ccc(-c5cnc([C@@H]6CCCN6C(=O)[C@@H](NC(=O)OC)C(C)C)[nH]5)c5c4C4(CCCC4)CC5)ccc3c2)[nH]1)C(C)C [Example 30]
pEC50 [1]: 8.49 | pEC50 [2]: 10.13

COC(=O)N[C@H](C(=O)N1CCC[C@H]1c1ncc(-c2ccc(-c3ccc(-c4cnc([C@@H]5CC6(CN5C(=O)[C@@H](NC(=O)OC)C(C)C)OCCO6)[nH]4)c4c3C3(CCCC3)CC4)cc2)[nH]1)C(C)C [Example 31]
pEC50 [1]: 8.33 | pEC50 [2]: 10.32

COC(=O)N[C@H](C(=O)N1C2CC2C[C@H]1c1ncc(-c2ccc(-c3ccc(-c4ccc5nc([C@@H]6CC7CC7N6C(=O)[C@@H](NC(=O)OC)C(C)C)[nH]c5c4)c4c3C3(CCCC3)CC4)cc2)[nH]1)C(C)C (stereo partly drawn) [Example 32]
pEC50 [1]: 10.19 | pEC50 [2]: 10.11

COC(=O)N[C@H](C(=O)N1C2CCC(C2)[C@H]1c1ncc(-c2ccc(-c3ccc(-c4ccc5nc([C@@H]6C7CCC(C7)N6C(=O)[C@@H](NC(=O)OC)C(C)C)[nH]c5c4)c4c3C3(CCCC3)CC4)cc2)[nH]1)C(C)C (stereo partly drawn) [Example 33]
pEC50 [1]: 10.05 | pEC50 [2]: 10.41

COC(=O)N[C@H](C(=O)N1CCC[C@H]1C(=O)Nc1cccc(-c2ccc(-c3ccc(-c4cnc([C@@H]5CCCN5C(=O)[C@@H](NC(=O)OC)C(C)C)[nH]4)cc3)c3c2CCC32CCCC2)c1)C(C)C [Example 34]
pEC50 [1]: 9.08 | pEC50 [2]: 10.77

COC(=O)N[C@H](C(=O)N1CC(C)=C[C@H]1c1ncc(-c2ccc(-c3ccc(-c4cnc([C@@H]5C=C(C)CN5C(=O)[C@@H](NC(=O)OC)C(C)C)[nH]4)c4c3C3(CCCC3)CC4)cc2)[nH]1)C(C)C [Example 35]
pEC50 [1]: 9.29 | pEC50 [2]: 10.07

COC(=O)N[C@H](C(=O)N1CCC[C@H]1c1nc(-c2ccc(-c3ccc(-c4ccc5nc([C@@H]6CCCN6C(=O)[C@@H](NC(=O)OC)C(C)C)[nH]c5c4)c4c3CCC43CCCC3)c3c2CCC3)c[nH]1)C(C)C [Example 36]
pEC50 [1]: 8.96 | pEC50 [2]: 10.05

COC(=O)N[C@H](C(=O)N1CCC[C@H]1c1ncc(-c2ccc(-c3ccc(-c4ccc5nc([C@@H]6CCCN6C(=O)[C@@H](NC(=O)OC)C(C)C)[nH]c5c4)c4c3CCC43CCCC3)c3ccccc23)[nH]1)C(C)C [Example 37]
pEC50 [1]: 8.42 | pEC50 [2]: 10.00

COC(=O)N[C@H](C(=O)N1CCC[C@H]1c1ncc(-c2ccc(-c3ccc(-c4ccc5nc([C@@H]6CCCN6C(=O)[C@@H](NC(=O)OC)C(C)C)[nH]c(=O)c5c4)c4c3C3(CCCC3)CC4)cc2)[nH]1)C(C)C [Example 38]
pEC50 [1]: 10.18 | pEC50 [2]: 11.05

COC(=O)N[C@H](C(=O)N1CCC[C@H]1C1=Nc2ccc(-c3cnc(-c4ccc(-c5cnc([C@@H]6CCCN6C(=O)[C@@H](NC(=O)OC)C(C)C)[nH]5)cc4)c4c3CCC43CCCC3)cc2S(=O)(=O)N1)C(C)C [Example 39]
pEC50 [1]: 10.57 | pEC50 [2]: 10.70

COC(=O)N[C@H](C(=O)N1CCC[C@H]1c1nc2ccc(-c3ccc(-c4ccc5nc([C@@H]6CCCN6C(=O)[C@@H](NC(=O)OC)C(C)C)[nH]c5c4)c4c3CCC43CCC3)cc2[nH]1)C(C)C [Example 40]
pEC50 [1]: 10.37 | pEC50 [2]: 10.77

COC(=O)N[C@H](C(=O)N1CCC[C@H]1c1ncc(-c2ccc(-c3ccc(-c4ccc5nc([C@@H]6CCCN6C(=O)[C@@H](NC(=O)OC)C(C)C)[nH]c5c4)c4c3CCCC43CCC3)s2)[nH]1)C(C)C [Example 41]
pEC50 [1]: 9.06 | pEC50 [2]: 10.37

COC(=O)N[C@H](C(=O)N1CC(F)(F)C[C@H]1c1nc(-c2ccc(-c3ccc(-c4cnc([C@@H]5CC(F)(F)CN5C(=O)[C@@H](NC(=O)OC)C(C)C)[nH]4)c4c3C3(CCOCC3)CC4)cc2)c[nH]1)C(C)C [Example 42]
pEC50 [1]: 8.16 | pEC50 [2]: 9.96

COC(=O)N[C@H](C(=O)N1CCC[C@H]1c1ncc(-c2ccc(-c3ccc(-c4cnc([C@@H]5CCCN5C(=O)[C@@H](NC(=O)OC)c5ccccc5)[nH]4)c4c3C3(CC4)CCN(C)CC3)cc2)[nH]1)c1ccccc1 [Example 43]
pEC50 [1]: 8.14 | pEC50 [2]: 9.83

COC(=O)N[C@H](C(=O)N1CCC[C@H]1c1ncc(-c2ccc(-c3ccc(-c4cnc([C@@H]5CCCN5C(=O)[C@@H](NC(=O)OC)C(C)C)[nH]4)c4c3C3(CC4)CCC(C)CC3)s2)[nH]1)C(C)C (stereo partly drawn) [Example 44]
pEC50 [1]: 7.86 | pEC50 [2]: 9.03

COC(=O)N[C@H](C(=O)N1CCC[C@H]1c1ncc(-c2ccc(-c3ccc(-c4ccc5nc([C@@H]6CCCN6C(=O)[C@@H](NC(=O)OC)C(C)C)[nH]c5c4)c4c3CCCC43CCCC3)nc2)[nH]1)C(C)C [Example 45]
pEC50 [1]: 9.97 | pEC50 [2]: 10.47
